system: T47D; experiment: Anticancer activity against human T47D cells assessed as cell growth inhibition at 10 uM incubated for 48 hrs by SRB assay relative to control; format: functional; settings: read-out: GI

SMILES	inhibition of growth at 10 µM
NS(=O)(=O)c1ccc(Nc2nc(N/N=C/c3ccccc3)nc(Nc3ccccc3)n2)cc1	37%

system: U-251; experiment: Anticancer activity against human U-251 cells assessed as cell growth inhibition at 10 uM incubated for 48 hrs by SRB assay relative to control; format: functional; settings: read-out: GI

SMILES	inhibition of growth at 10 µM
NS(=O)(=O)c1ccc(Nc2nc(N/N=C/c3ccccc3)nc(Nc3ccccc3)n2)cc1	14%

system: SK-MEL-28; experiment: Anticancer activity against human SK-MEL-28 cells assessed as cell growth inhibition at 10 uM incubated for 48 hrs by SRB assay relative to control; format: functional; settings: read-out: GI

SMILES	inhibition of growth at 10 µM
NS(=O)(=O)c1ccc(Nc2nc(N/N=C/c3ccccc3)nc(Nc3ccccc3)n2)cc1	27%

system: RPMI-8226; experiment: Anticancer activity against human RPMI-8226 cells assessed as cell growth inhibition at 10 uM incubated for 48 hrs by SRB assay relative to control; format: functional; settings: read-out: GI

SMILES	inhibition of growth at 10 µM
NS(=O)(=O)c1ccc(Nc2nc(N/N=C/c3ccccc3)nc(Nc3ccccc3)n2)cc1	41%

system: SK-OV-3; experiment: Anticancer activity against human SK-OV-3 cells assessed as cell growth inhibition at 10 uM incubated for 48 hrs by SRB assay relative to control; format: functional; settings: read-out: GI

SMILES	inhibition of growth at 10 µM
NS(=O)(=O)c1ccc(Nc2nc(N/N=C/c3ccccc3)nc(Nc3ccccc3)n2)cc1	< 10%

system: CAKI-1; experiment: Anticancer activity against human CAKI-1 cells assessed as cell growth inhibition at 10 uM incubated for 48 hrs by SRB assay relative to control; format: functional; settings: read-out: GI

SMILES	inhibition of growth at 10 µM
NS(=O)(=O)c1ccc(Nc2nc(N/N=C/c3ccccc3)nc(Nc3ccccc3)n2)cc1	27%

system: NCI-H522; experiment: Anticancer activity against human NCI-H522 cells assessed as cell growth inhibition at 10 uM incubated for 48 hrs by SRB assay relative to control; format: functional; settings: read-out: GI

SMILES	inhibition of growth at 10 µM
NS(=O)(=O)c1ccc(Nc2nc(N/N=C/c3ccccc3)nc(Nc3ccccc3)n2)cc1	< 10%

system: SK-MEL-5; experiment: Anticancer activity against human SK-MEL-5 cells assessed as cell growth inhibition at 10 uM incubated for 48 hrs by SRB assay relative to control; format: functional; settings: read-out: GI

SMILES	inhibition of growth at 10 µM
NS(=O)(=O)c1ccc(Nc2nc(N/N=C/c3ccccc3)nc(Nc3ccccc3)n2)cc1	35%

system: HL-60(TB); experiment: Anticancer activity against human HL-60(TB) cells assessed as cell growth inhibition at 10 uM incubated for 48 hrs by SRB assay relative to control; format: functional; settings: read-out: GI

SMILES	inhibition of growth at 10 µM
NS(=O)(=O)c1ccc(Nc2nc(N/N=C/c3ccccc3)nc(Nc3ccccc3)n2)cc1	40%

system: K562; experiment: Anticancer activity against human K562 cells assessed as cell growth inhibition at 10 uM incubated for 48 hrs by SRB assay relative to control; format: functional; settings: read-out: GI

SMILES	inhibition of growth at 10 µM
NS(=O)(=O)c1ccc(Nc2nc(N/N=C/c3ccccc3)nc(Nc3ccccc3)n2)cc1	40%

system: OVCAR-3; experiment: Anticancer activity against human OVCAR-3 cells assessed as cell growth inhibition at 10 uM incubated for 48 hrs by SRB assay relative to control; format: functional; settings: read-out: GI

SMILES	inhibition of growth at 10 µM
NS(=O)(=O)c1ccc(Nc2nc(N/N=C/c3ccccc3)nc(Nc3ccccc3)n2)cc1	29%

system: HT-29; experiment: Anticancer activity against human HT-29 cells assessed as cell growth inhibition at 10 uM incubated for 48 hrs by SRB assay relative to control; format: functional; settings: read-out: GI

SMILES	inhibition of growth at 10 µM
NS(=O)(=O)c1ccc(Nc2nc(N/N=C/c3ccccc3)nc(Nc3ccccc3)n2)cc1	37%

system: EKVX; experiment: Anticancer activity against human EKVX cells assessed as cell growth inhibition at 10 uM incubated for 48 hrs by SRB assay relative to control; format: functional; settings: read-out: GI

SMILES	inhibition of growth at 10 µM
NS(=O)(=O)c1ccc(Nc2nc(N/N=C/c3ccccc3)nc(Nc3ccccc3)n2)cc1	29%

system: ACHN; experiment: Anticancer activity against human ACHN cells assessed as cell growth inhibition at 10 uM incubated for 48 hrs by SRB assay relative to control; format: functional; settings: read-out: GI

SMILES	inhibition of growth at 10 µM
NS(=O)(=O)c1ccc(Nc2nc(N/N=C/c3ccccc3)nc(Nc3ccccc3)n2)cc1	17%

system: SNB-19; experiment: Anticancer activity against human SNB-19 cells assessed as cell growth inhibition at 10 uM incubated for 48 hrs by SRB assay relative to control; format: functional; settings: read-out: GI

SMILES	inhibition of growth at 10 µM
NS(=O)(=O)c1ccc(Nc2nc(N/N=C/c3ccccc3)nc(Nc3ccccc3)n2)cc1	< 10%

system: Hs-578T; experiment: Anticancer activity against human Hs-578T cells assessed as cell growth inhibition at 10 uM incubated for 48 hrs by SRB assay relative to control; format: functional; settings: read-out: GI

SMILES	inhibition of growth at 10 µM
NS(=O)(=O)c1ccc(Nc2nc(N/N=C/c3ccccc3)nc(Nc3ccccc3)n2)cc1	43%

system: IGROV-1; experiment: Anticancer activity against human IGROV-1 cells assessed as cell growth inhibition at 10 uM incubated for 48 hrs by SRB assay relative to control; format: functional; settings: read-out: GI

SMILES	inhibition of growth at 10 µM
NS(=O)(=O)c1ccc(Nc2nc(N/N=C/c3ccccc3)nc(Nc3ccccc3)n2)cc1	38%

system: SN12C; experiment: Anticancer activity against human SN12C cells assessed as cell growth inhibition at 10 uM incubated for 48 hrs by SRB assay relative to control; format: functional; settings: read-out: GI

SMILES	inhibition of growth at 10 µM
NS(=O)(=O)c1ccc(Nc2nc(N/N=C/c3ccccc3)nc(Nc3ccccc3)n2)cc1	20%

system: OVCAR-8; experiment: Anticancer activity against human OVCAR-8 cells assessed as cell growth inhibition at 10 uM incubated for 48 hrs by SRB assay relative to control; format: functional; settings: read-out: GI

SMILES	inhibition of growth at 10 µM
NS(=O)(=O)c1ccc(Nc2nc(N/N=C/c3ccccc3)nc(Nc3ccccc3)n2)cc1	20%

system: LOX IMVI; experiment: Anticancer activity against human LOX IMVI cells assessed as cell growth inhibition at 10 uM incubated for 48 hrs by SRB assay relative to control; format: functional; settings: read-out: GI

SMILES	inhibition of growth at 10 µM
NS(=O)(=O)c1ccc(Nc2nc(N/N=C/c3ccccc3)nc(Nc3ccccc3)n2)cc1	35%

system: 786-0; experiment: Anticancer activity against human 786-0 cells assessed as cell growth inhibition at 10 uM incubated for 48 hrs by SRB assay relative to control; format: functional; settings: read-out: GI

SMILES	inhibition of growth at 10 µM
NS(=O)(=O)c1ccc(Nc2nc(N/N=C/c3ccccc3)nc(Nc3ccccc3)n2)cc1	33%

system: UO-31; experiment: Anticancer activity against human UO-31 cells assessed as cell growth inhibition at 10 uM incubated for 48 hrs by SRB assay relative to control; format: functional; settings: read-out: GI

SMILES	inhibition of growth at 10 µM
NS(=O)(=O)c1ccc(Nc2nc(N/N=C/c3ccccc3)nc(Nc3ccccc3)n2)cc1	34%

system: SNB-75; experiment: Anticancer activity against human SNB-75 cells assessed as cell growth inhibition at 10 uM incubated for 48 hrs by SRB assay relative to control; format: functional; settings: read-out: GI

SMILES	inhibition of growth at 10 µM
NS(=O)(=O)c1ccc(Nc2nc(N/N=C/c3ccccc3)nc(Nc3ccccc3)n2)cc1	< 10%

system: HCC 2998; experiment: Anticancer activity against human HCC 2998 cells assessed as cell growth inhibition at 10 uM incubated for 48 hrs by SRB assay relative to control; format: functional; settings: read-out: GI

SMILES	inhibition of growth at 10 µM
NS(=O)(=O)c1ccc(Nc2nc(N/N=C/c3ccccc3)nc(Nc3ccccc3)n2)cc1	21%

system: Malme-3M; experiment: Anticancer activity against human Malme-3M cells assessed as cell growth inhibition at 10 uM incubated for 48 hrs by SRB assay relative to control; format: functional; settings: read-out: GI

SMILES	inhibition of growth at 10 µM
NS(=O)(=O)c1ccc(Nc2nc(N/N=C/c3ccccc3)nc(Nc3ccccc3)n2)cc1	22%

system: UACC-62; experiment: Anticancer activity against human UACC-62 cells assessed as cell growth inhibition at 10 uM incubated for 48 hrs by SRB assay relative to control; format: functional; settings: read-out: GI

SMILES	inhibition of growth at 10 µM
NS(=O)(=O)c1ccc(Nc2nc(N/N=C/c3ccccc3)nc(Nc3ccccc3)n2)cc1	31%

system: COLO 205; experiment: Anticancer activity against human COLO 205 cells assessed as cell growth inhibition at 10 uM incubated for 48 hrs by SRB assay relative to control; format: functional; settings: read-out: GI

SMILES	inhibition of growth at 10 µM
NS(=O)(=O)c1ccc(Nc2nc(N/N=C/c3ccccc3)nc(Nc3ccccc3)n2)cc1	14%

target: Carbonic anhydrase 9 (Homo sapiens, UniProt Q16790); experiment: Inhibition of recombinant human CA 9 preincubated for 15 mins by phenol red dye based stopped flow CO2 hydration assay; settings: not given

SMILES	Ki
NS(=O)(=O)c1ccc(Nc2nc(N/N=C/c3ccccc3)nc(Nc3ccccc3)n2)cc1	30.3 nM

system: CCRF-CEM; experiment: Anticancer activity against human CCRF-CEM cells assessed as cell growth inhibition at 10 uM incubated for 48 hrs by SRB assay relative to control; format: functional; settings: read-out: GI

SMILES	inhibition of growth at 10 µM
NS(=O)(=O)c1ccc(Nc2nc(N/N=C/c3ccccc3)nc(Nc3ccccc3)n2)cc1	52%

system: OVCAR-5; experiment: Anticancer activity against human OVCAR-5 cells assessed as cell growth inhibition at 10 uM incubated for 48 hrs by SRB assay relative to control; format: functional; settings: read-out: GI

SMILES	inhibition of growth at 10 µM
NS(=O)(=O)c1ccc(Nc2nc(N/N=C/c3ccccc3)nc(Nc3ccccc3)n2)cc1	< 10%

system: MDA-MB-468; experiment: Anticancer activity against human MDA-MB-468 cells assessed as cell growth inhibition at 10 uM incubated for 48 hrs by SRB assay relative to control; format: functional; settings: read-out: GI

SMILES	inhibition of growth at 10 µM
NS(=O)(=O)c1ccc(Nc2nc(N/N=C/c3ccccc3)nc(Nc3ccccc3)n2)cc1	19%

system: HCT-116; experiment: Anticancer activity against human HCT-116 cells assessed as cell growth inhibition at 10 uM incubated for 48 hrs by SRB assay relative to control; format: functional; settings: read-out: GI

SMILES	inhibition of growth at 10 µM
NS(=O)(=O)c1ccc(Nc2nc(N/N=C/c3ccccc3)nc(Nc3ccccc3)n2)cc1	27%

system: NCI-H460; experiment: Anticancer activity against human NCI-H460 cells assessed as cell growth inhibition at 10 uM incubated for 48 hrs by SRB assay relative to control; format: functional; settings: read-out: GI

SMILES	inhibition of growth at 10 µM
NS(=O)(=O)c1ccc(Nc2nc(N/N=C/c3ccccc3)nc(Nc3ccccc3)n2)cc1	31%

system: SF-539; experiment: Anticancer activity against human SF-539 cells assessed as cell growth inhibition at 10 uM incubated for 48 hrs by SRB assay relative to control; format: functional; settings: read-out: GI

SMILES	inhibition of growth at 10 µM
NS(=O)(=O)c1ccc(Nc2nc(N/N=C/c3ccccc3)nc(Nc3ccccc3)n2)cc1	23%

system: HOP-92; experiment: Anticancer activity against human HOP-92 cells assessed as cell growth inhibition at 10 uM incubated for 48 hrs by SRB assay relative to control; format: functional; settings: read-out: GI

SMILES	inhibition of growth at 10 µM
NS(=O)(=O)c1ccc(Nc2nc(N/N=C/c3ccccc3)nc(Nc3ccccc3)n2)cc1	27%

system: HCT-15; experiment: Anticancer activity against human HCT-15 cells assessed as cell growth inhibition at 10 uM incubated for 48 hrs by SRB assay relative to control; format: functional; settings: read-out: GI

SMILES	inhibition of growth at 10 µM
NS(=O)(=O)c1ccc(Nc2nc(N/N=C/c3ccccc3)nc(Nc3ccccc3)n2)cc1	13%

system: NCI-H23; experiment: Anticancer activity against human NCI-H23 cells assessed as cell growth inhibition at 10 uM incubated for 48 hrs by SRB assay relative to control; format: functional; settings: read-out: GI

SMILES	inhibition of growth at 10 µM
NS(=O)(=O)c1ccc(Nc2nc(N/N=C/c3ccccc3)nc(Nc3ccccc3)n2)cc1	13%

system: SR; experiment: Anticancer activity against human SR cells assessed as cell growth inhibition at 10 uM incubated for 48 hrs by SRB assay relative to control; format: functional; settings: read-out: GI

SMILES	inhibition of growth at 10 µM
NS(=O)(=O)c1ccc(Nc2nc(N/N=C/c3ccccc3)nc(Nc3ccccc3)n2)cc1	25%

system: RXF 393; experiment: Anticancer activity against human RXF 393 cells assessed as cell growth inhibition at 10 uM incubated for 48 hrs by SRB assay relative to control; format: functional; settings: read-out: GI

SMILES	inhibition of growth at 10 µM
NS(=O)(=O)c1ccc(Nc2nc(N/N=C/c3ccccc3)nc(Nc3ccccc3)n2)cc1	87%

system: SW-620; experiment: Anticancer activity against human SW-620 cells assessed as cell growth inhibition at 10 uM incubated for 48 hrs by SRB assay relative to control; format: functional; settings: read-out: GI

SMILES	inhibition of growth at 10 µM
NS(=O)(=O)c1ccc(Nc2nc(N/N=C/c3ccccc3)nc(Nc3ccccc3)n2)cc1	< 10%

— ChEMBL document CHEMBL5154747, “Discovery of new carbonic anhydrase IX inhibitors as anticancer agents by toning the hydrophobic and hydrophilic rims of the active site to encounter the dual-tail approach” (Eur J Med Chem, 2022)
